Experimental data taken from patent publication US8420144B2, “Kokumi-imparting agent, method of using, and compositions containing same” (Ajinomoto Co., Inc., priority 2005, dated 2013).

What was measured:
human calcium receptor = molecular target: T1, human calcium receptor (Homo sapiens, UniProt P41180); experiment: Calcium receptor activation activity: Ca ion concentration-dependent Cl ionic current in Xenopus laevis oocyte expression system; type: cell-based
T1 construct: expressed in transfected cells; host or cells: Xenopus laevis oocytes microinjected with cRNA; gene amplified by PCR from human kidney cDNA (Clontech)
T1 sequence (P41180 20-1078): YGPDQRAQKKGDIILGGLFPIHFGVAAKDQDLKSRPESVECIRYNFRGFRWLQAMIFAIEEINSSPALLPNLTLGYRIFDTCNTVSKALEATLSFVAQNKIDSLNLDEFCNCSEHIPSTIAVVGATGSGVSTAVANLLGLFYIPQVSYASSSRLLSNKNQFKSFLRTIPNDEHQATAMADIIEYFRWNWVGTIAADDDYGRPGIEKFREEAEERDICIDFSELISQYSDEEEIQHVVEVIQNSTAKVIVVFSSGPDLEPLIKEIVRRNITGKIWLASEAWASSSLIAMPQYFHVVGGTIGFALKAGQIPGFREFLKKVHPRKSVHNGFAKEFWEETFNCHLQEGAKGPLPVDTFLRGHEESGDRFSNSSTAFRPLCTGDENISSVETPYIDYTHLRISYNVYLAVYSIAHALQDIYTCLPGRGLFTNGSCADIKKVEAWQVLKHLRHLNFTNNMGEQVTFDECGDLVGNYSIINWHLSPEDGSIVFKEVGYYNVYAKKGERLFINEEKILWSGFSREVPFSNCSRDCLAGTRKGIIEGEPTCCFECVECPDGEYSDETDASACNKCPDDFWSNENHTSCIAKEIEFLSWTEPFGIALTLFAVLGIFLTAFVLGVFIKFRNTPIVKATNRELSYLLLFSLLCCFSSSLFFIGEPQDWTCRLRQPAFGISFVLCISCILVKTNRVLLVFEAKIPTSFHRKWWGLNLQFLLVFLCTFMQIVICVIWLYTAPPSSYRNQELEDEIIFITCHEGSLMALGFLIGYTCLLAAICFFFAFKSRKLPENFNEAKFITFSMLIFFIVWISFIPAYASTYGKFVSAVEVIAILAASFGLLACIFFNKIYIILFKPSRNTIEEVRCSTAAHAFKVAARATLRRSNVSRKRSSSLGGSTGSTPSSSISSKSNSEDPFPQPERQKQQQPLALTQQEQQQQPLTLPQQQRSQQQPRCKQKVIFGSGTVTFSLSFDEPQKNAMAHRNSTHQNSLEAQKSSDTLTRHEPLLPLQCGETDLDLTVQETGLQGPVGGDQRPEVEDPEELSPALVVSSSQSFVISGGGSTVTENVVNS
Method: To evaluate calcium receptor activation activity, a Ca ion concentration-dependent Cl ionic current measuring method using a Xenopus laevis oocyte expression system was used. If each activator is added to Xenopus laevis oocytes expressing the calcium receptor, intracellular Ca ions increase. Then, the Ca ion concentration-dependent Cl channel opens, and the intracellular current value changes as an ionic current. By measuring the change in this intracellular current value, the presence or absence of calcium receptor activation activity can be determined.
Specifically, the abdomen of Xenopus laevis was opened, and an egg batch was taken out and treated with a 1% collagenase solution at 20° C. for 2 hours to obtain individual oocytes. Into the oocytes, 50 nl of 1 μg/μl receptor cRNA or 50 nl of sterilized water per oocyte was introduced by using a micro glass capillary, and the oocytes were cultured at 18° C. for 2 or 3 days. For the culture, a solution obtained by adding 2 mM pyruvic acid, 10 U/ml of penicillin, and 10 μg/ml of streptomycin to the solution in Example 2 was used. After the culture, a test solution was added to the oocytes containing either the cRNA or sterilized water. Electrophysiological measurement was performed by using an amplifier, Geneclamp500 (Axon), and recording software, AxoScope 9.0 (Axon). The oocytes were voltage-clamped at −70 mV by the double electrode voltage clamp method, and the intracellular current was measured via the Ca ion concentration-dependent Cl ion channel. The maximum value of the intracellular current was considered as the response current value.
Calcium receptor activation activity of L-amino acids was evaluated by using the method described in Example 13. That is, oocytes containing either cRNA of the calcium receptor or sterilized water were prepared, and voltage-clamped at −70 mV by the double electrode voltage clamp method. To the voltage-clamped oocytes, alanine (10 mM), arginine (10 mM), asparagine (10 mM), aspartic acid (10 mM), cysteine (10 mM), glutamine (10 mM), glutamic acid (10 mM), glycine (10 mM), histidine (10 mM), isoleucine (10 mM), leucine (10 mM), lysine (10 mM), methionine (10 mM), phenylalanine (10 mM), proline (10 mM), serine (10 mM), threonine (10 mM), tryptophan (10 mM), tyrosine (10 mM), valine (10 mM), ornithine (10 mM), taurine (10 mM), or hydroxyproline (10 mM) was added, and Ca ion concentration-dependent Cl response current was measured. […] As for the aforementioned amino acids, the activation activity was reported in Proc. Natl. Acad. Sci. USA, 2000 Apr. 25, 97(9):4814-9.
Calcium receptor activation activity of D-cysteine was evaluated by using the method described in Example 13. That is, oocytes containing either cRNA of the calcium receptor or sterilized water were prepared, and voltage-clamped at −70 mV by the double electrode voltage clamp method. To the voltage-clamped oocytes, D-cysteine (10 mM), L-cysteine (10 mM), D-tryptophan (10 mM), or L-tryptophan (10 mM) was added, and Ca ion concentration-dependent Cl response current was measured.
Calcium receptor activation activity of peptides was evaluated by using the method described in Example 13. That is, oocytes containing either cRNA of the calcium receptor or sterilized water were prepared, and voltage-clamped at −70 mV by the double electrode voltage clamp method.
Calcium receptor activation activity of peptides was evaluated in the same manner as that of Example 17. Each of the peptides shown in Table 2 was added to voltage-clamped oocytes at 1000 μM, 300 μM, 100 μM, 30 μM, 10 μM, 3 μM, 1 μM, 0.3 μM, and 0.1 μM, and Ca ion concentration-dependent Cl response current was measured.

[1] = Quantitative sensory evaluation test of kokumi-imparting activity in water with sodium glutamate, inosine monophosphate and sodium chloride; type: in vivo, human; design: key: *: Unmeasurable: Kokumi-imparting activity was too strong and could not be measured by the sensory evaluation
Method: Sample solutions that became acidic after dissolution of the samples were adjusted to pH 6.8 to 7.2 with NaOH before use. Sensory evaluation scores were used for evaluation based on the control sample (0 points) and the glutathione sample (3 points), and the test was performed with n=3.
The sample solutions that became acidic after dissolution of the samples were adjusted to pH 6.8 to 7.2 with NaOH before use. Sensory evaluation scores were used for evaluation based on the control sample (0 points) and the glutathione sample (3 points), and the test was performed with n=5.
Sample solutions that became acidic after dissolution of the samples were adjusted to pH 6.8 to 7.2 with NaOH before use. Sensory evaluation scores were used for evaluation based on the control sample (0 points) and the glutathione sample (3 points), and the test was performed with n=12.

[2] = Table 5, 0.1 g/dl, n=3, control 0, glutathione 3 points
[3] = Table 6, 0.1 g/dl, n=5, control 0, glutathione 3 points
[4] = Table 7, 0.1 g/dl, n=12, control 0, glutathione 3 points
[5] = Table 6, 0.01 g/dl, n=5, control 0, glutathione 3 points
[6] = Table 7, 0.01 g/dl, n=12, control 0, glutathione 3 points

Compound	calcium receptor activation activity (Ca ion concentration-dependent Cl response current) (human calcium receptor; 50 μM peptide, oocytes voltage-clamped at −70 mV)	Intensity of kokumi: Aftertaste [1, 2]	Intensity of kokumi: First and middle taste [1, 2]	Intensity of kokumi: Aftertaste [1, 3]	Intensity of kokumi: First and middle taste [1, 3]	Intensity of kokumi: Aftertaste [1, 4]	Intensity of kokumi: First and middle taste [1, 4]	Activity (lowest concentration for which current was detected) (human calcium receptor; added at 1000, 300, 100, 30, 10, 3, 1, 0.3 and 0.1 μM)	Intensity of kokumi: Aftertaste [1, 5]	Intensity of kokumi: First and middle taste [1, 5]	Intensity of kokumi: Aftertaste ([1]; Table 6, 0.1 g/dl, n=5)	Intensity of kokumi: First and middle taste ([1]; Table 6, 0.1 g/dl, n=5)	Intensity of kokumi: Aftertaste [1, 6]	Intensity of kokumi: First and middle taste [1, 6]
N[C@@H](CCC(=O)N[C@@H](CS)C(=O)NCC(=O)O)C(=O)O [γ-Glu-Cys-Gly, reference compound]	definitive calcium receptor activation activity	3.0 points	3.0 points	3.0 points	3.0 points	3.0 points	3.0 points	–	–	–	–	–	–	–
CC(C)[C@H](NC(=O)CC[C@H](N)C(=O)O)C(=O)NCC(=O)O [γ-Glu-Val-Gly]	–	–	–	–	–	–	–	0.1 µM	3.0 points	3.0 points	*	*	3.0 points	3.0 points
